Assay results published in the supplement of paper PMC13380429.

Tests used:
Conditions in all cases: 72 h
Caco-2 [1] = assay: cell viability relative to DMSO; higher = less toxic
Calu-3 [2] = assay: as above
HepG2 [3] = assay: as above
U2OS [4] = assay: as above
Vero E6 [5] = assay: as above
Caco-2 [6] = assay: relative viability EC50 (midpoint between 100% and the lowest measured viability); higher = less toxic
Calu-3 [7] = assay: as above
HepG2 [8] = assay: as above
U2OS [9] = assay: as above
Vero E6 [10] = assay: as above
Caco-2 [11] = assay: drug sensitivity score (DSS) for viability; higher = more toxic; extreme values may be limits of the assay
Calu-3 [12] = assay: as above
HepG2 [13] = assay: as above
U2OS [14] = assay: as above
Vero E6 [15] = assay: as above

SMILES | cell viability (Caco-2 [1]; 1 nM) | cell viability (Caco-2 [1]; 10 nM) | cell viability (Caco-2 [1]; 100 nM) | cell viability (Caco-2 [1]; 1000 nM) | cell viability (Caco-2 [1]; 10000 nM) | cell viability (Calu-3 [2]; 1 nM) | cell viability (Calu-3 [2]; 10 nM) | cell viability (Calu-3 [2]; 100 nM) | cell viability (Calu-3 [2]; 1000 nM) | cell viability (Calu-3 [2]; 10000 nM) | cell viability (HepG2 [3]; 1 nM) | cell viability (HepG2 [3]; 10 nM) | cell viability (HepG2 [3]; 100 nM) | cell viability (HepG2 [3]; 1000 nM) | cell viability (HepG2 [3]; 10000 nM) | cell viability (U2OS [4]; 1 nM) | cell viability (U2OS [4]; 10 nM) | cell viability (U2OS [4]; 100 nM) | cell viability (U2OS [4]; 1000 nM) | cell viability (U2OS [4]; 10000 nM) | cell viability (Vero E6 [5]; 1 nM) | cell viability (Vero E6 [5]; 10 nM) | cell viability (Vero E6 [5]; 100 nM) | cell viability (Vero E6 [5]; 1000 nM) | cell viability (Vero E6 [5]; 10000 nM) | relative viability EC50 (Caco-2 [6]) | relative viability EC50 (Calu-3 [7]) | relative viability EC50 (HepG2 [8]) | relative viability EC50 (U2OS [9]) | relative viability EC50 (Vero E6 [10]) | drug sensitivity score (Caco-2 [11]) | drug sensitivity score (Calu-3 [12]) | drug sensitivity score (HepG2 [13]) | drug sensitivity score (U2OS [14]) | drug sensitivity score (Vero E6 [15])
C[C@@H](O[C@H]1OCCN(Cc2n[nH]c(=O)[nH]2)[C@H]1c1ccc(F)cc1)c1cc(C(F)(F)F)cc(C(F)(F)F)c1 [aprepitant] | 100% | 107% | 100% | 105% | 89.2% | 90.9% | 105% | 103% | 97.7% | 97.1% | 102% | 103% | 106% | 109% | 95.3% | 99.5% | 103% | 95.3% | 102% | 88.4% | 97.4% | 104% | 98.8% | 103% | 103% | > 10 µM | > 10 µM | > 10 µM | > 10 µM | > 10 µM | 0 | 0 | 0 | 0 | 0
C[C@@]1(O)[C@H](O)[C@@H](CO)O[C@H]1n1cnc2c(NC3CCCC3)nc(Cl)nc21 [2'-MeCCPA] | 95.9% | 100% | 102% | 105% | 103% | 93.9% | 98% | 96.5% | 100% | 91.4% | 95.6% | 95.5% | 101% | 97.7% | 96.8% | 96.9% | 100% | 96.8% | 99.6% | 100% | 105% | 98.7% | 100% | 98.9% | 102% | > 10 µM | > 10 µM | > 10 µM | > 10 µM | > 10 µM | 0 | 0 | 0 | 0 | 0
Cc1nn(C)c2c1C(c1ccc(C(F)(F)F)cc1)C(C#N)=C(N)O2 (stereo not given) [BQU57] | 94.3% | 93.5% | 95% | 97.1% | 89.2% | 98.7% | 104% | 98.7% | 108% | 104% | 109% | 97.9% | 103% | 99% | 102% | 98% | 101% | 98.8% | 100% | 102% | 104% | 104% | 103% | 101% | 99.7% | > 10 µM | > 10 µM | > 10 µM | > 10 µM | > 10 µM | 0 | 0 | 0 | 0 | 0
CCc1cc2c(c(CC)n1)CCC(=O)N2Cc1ccc(-c2ccccc2-c2nnn[nH]2)cc1 [ZD-7155] | 97.5% | 86.9% | 91.5% | 96.8% | 109% | 111% | 99.8% | 97% | 95.3% | 94.7% | 86.1% | 97.8% | 91.1% | 99.6% | 102% | 96.2% | 97.4% | 102% | 99.3% | 101% | 92.5% | 96.2% | 91.6% | 97.1% | 102% | > 10 µM | > 10 µM | > 10 µM | > 10 µM | > 10 µM | 0 | 0 | 0 | 0 | 0
CC(=O)CC(c1ccccc1)c1c(O)c2ccccc2oc1=O (stereo not given) [warfarin] | 98% | 108% | 101% | 95.1% | 99.7% | 100% | 91.9% | 104% | 97.8% | 115% | 100% | 85.7% | 94.8% | 98.5% | 107% | 96% | 97.2% | 98.3% | 102% | 94.9% | 101% | 96.9% | 105% | 103% | 97.1% | > 10 µM | > 10 µM | > 10 µM | > 10 µM | > 10 µM | 0 | 0 | 0 | 0 | 0
C=C(C)CN1CC[C@]23c4c5ccc(O)c4O[C@H]2c2[nH]c4ccccc4c2C[C@@]3(O)C1C5 [SDM25N] | 92.9% | 102% | 89.9% | 101% | 86.4% | 92.8% | 86.2% | 93.5% | 110% | 82.4% | 92.7% | 101% | 100% | 102% | 80.7% | 93.7% | 100% | 100% | 101% | 91.8% | 90.7% | 93.1% | 95.6% | 96.6% | 88.8% | > 10 µM | > 10 µM | > 10 µM | > 10 µM | > 10 µM | 0.1 | 0.2 | 0.4 | 0 | 0
NC(=O)c1ccccc1O [salicylamide] | 93.6% | 99% | 78.2% | 84.8% | 79.2% | 105% | 105% | 92% | 100% | 104% | 98.5% | 99.6% | 98.5% | 91.2% | 99.7% | 97.9% | 108% | 95.6% | 102% | 98.9% | 98% | 93.9% | 102% | 97.9% | 93% | > 10 µM | > 10 µM | > 10 µM | > 10 µM | > 10 µM | 5.7 | 0 | 0 | 0 | 0
